Results published in patent EP3888661A1, “COMPOSITIONS COMPRISING 2 -FUCOSYLLACTOSE TO PREVENT VIRAL INFECTIONS” (FrieslandCampina Nederland B.V., priority 2020, dated 2021).

Key:
[1] = cited from earlier work
[2] = tested on: anaerobic microbiota from human origin; experiment: TIM-2 in vitro fermentation model of the human colon, SCFA/acetate production
Excerpt: The in vitro fermentation studies were done using the TIM-2 model. This is a validated, dynamic, computer-controlled model that simulates the human colon, mimicking body temperature, lumen pH, absorption of water and microbial metabolites through a semipermeable membrane inside the model, mixing and transporting the intestinal contents with peristaltic movements, using an anaerobic microbiota from human origin, it corresponds basically to the model as described in Minekus, M., etal. Appl. Microbiol. Biotechnol. 1999 53, 108-114. doi: 10.1007/ s002530051622 and Kortman et al., Frontiers in Microbiology 2016, 6, 1481. Characteristics of the movements of the contents in the TIM-2 system was simulated using an increase of the pH and peristaltic movements of the contents in the system using peristaltic pumps as described in Minekus, M (1998. Development and validation of a dynamic model of the gastrointestinal tract. PhD thesis, Delft University of Technology, The Netherlands).
SCFA analysis was performed at Brightlabs B.V., Venlo, The Netherlands), according to (Sáyago-Ayerdi SG, et al. Food Research International, E-pub date 13 December 2017; Sayago Ayerdi et al Food Research International 118 (2019) 89-95). […]
Samples (1 mL) were taken for Short Chain Fatty Acid (SCFA) analysis after 1, 2, 4, 6, 8 and 24 h after test product insertion; cumulative absolute amounts of SCFA were determined. […]

C[C@@H]1O[C@@H](O[C@H]2[C@H](O[C@H]3[C@H](O)[C@@H](O)C(O)O[C@@H]3CO)O[C@H](CO)[C@H](O)[C@@H]2O)[C@@H](O)[C@H](O)[C@@H]1O (stereo partly drawn) [2'-FL, 2'-Fucosyllactose]
daily dosage tested as safe [1]: 20 g
acetate production ([2]; 7.5 gram test product as single shot, cumulative acetate produced between 8 and 24 hours after insertion, representing the distal colon, pooled fecal microbiota of 20 healthy subjects): 17 mmol
acetate production ([2]; fecal microbiota samples of lean and of obese subjects in the TIM-2 model system): An increase in the acetate production was observed
